Like-named read-outs stand apart in the source and are kept apart here.
Columns and labels:
[1] = target: T1, human enzyme NAMPT (full length) (Homo sapiens, UniProt P43490); assay: NMN fluorescence biochemical assay (stimulation of NMN synthesis by NAMPT); conditions: for EC50: concentration giving half-maximal activation, read-out: Enzymatic EC50; for Enzymatic Emax: fold change of maximal activation compared to DMSO
T1 construct: human enzyme NAMPT (full length)
Outline: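 Full-length human NAMPT (100 nM) was preincubated 15 min at 37 °C with compound in 50 mM Tris-HCl pH 7.5, 10 mM MgCl2, 2 mM DTT, then reacted 1 h at 37 °C with 50 μM NAM, 100 μM PRPP, 4 mM ATP (stated solution concentrations). NMN was derivatised with acetophenone/KOH then formic acid and read at Ex/Em 382/445 nm; EC50 and Emax (fold over DMSO) reported.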

[2] = system: endogenous NAMPT in U2OS cells; assay: Cellular NAD+ modulation assay (NAD/NADH-Glo, U2OS cells); assay type: cell-based; conditions: Homo sapiens; for maximal fold induction: read-out: Cellular Emax
Outline: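 Endogenous NAMPT stimulation in U2OS cells treated with compound dilution series for 24 h at 37 °C. Cells lysed with DTAB base, acid-treated 15 min at 60 °C, neutralized, NAD+ read by NAD/NADH-Glo luminescence after 40 min at room temperature. EC50 and Emax (fold over DMSO) derived.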

[3] = NMN synthesis by purified human NAMPT (100 nM)
[4] = 24 hours incubation with compound
[5] = NMN fluorescence assay, purified human NAMPT 100 nM
[6] = 24 hours incubation, cellular NAD+

T1 sequence (P43490 whole entry): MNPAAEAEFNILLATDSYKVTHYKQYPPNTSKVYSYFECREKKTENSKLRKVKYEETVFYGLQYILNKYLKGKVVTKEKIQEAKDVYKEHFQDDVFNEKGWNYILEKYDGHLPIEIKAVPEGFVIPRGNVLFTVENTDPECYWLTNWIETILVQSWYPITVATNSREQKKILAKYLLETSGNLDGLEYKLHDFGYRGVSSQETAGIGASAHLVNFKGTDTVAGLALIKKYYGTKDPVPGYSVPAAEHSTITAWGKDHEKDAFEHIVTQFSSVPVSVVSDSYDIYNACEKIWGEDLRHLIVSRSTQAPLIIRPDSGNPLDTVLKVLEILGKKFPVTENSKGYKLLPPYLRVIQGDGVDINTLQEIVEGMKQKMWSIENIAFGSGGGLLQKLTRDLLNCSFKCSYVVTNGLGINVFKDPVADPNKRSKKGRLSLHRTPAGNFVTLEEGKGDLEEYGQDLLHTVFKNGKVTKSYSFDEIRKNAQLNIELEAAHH

| EC50 [1, 3] [nM] | Enzymatic Emax [1] | EC50 [2, 4] [nM] | EC50 [1, 5] [nM] | EC50 [2, 6] [nM] | SMILES | maximal fold induction [2, 4] | maximal fold induction [2, 6] |
| --- | --- | --- | --- | --- | --- | --- | --- |
| ≥ 5000 | A (A>3) | 500 to 5000 | – | – | COc1ccc2c(c1)C(C)N(Cc1ccc3[nH]c(=O)oc3c1)C2=O (single isomer, unassigned) [Compound 243] | > 1.5 | – |
| 500 to 5000 | B (3≥B>2) | 500 to 5000 | – | – | N#Cc1ccc(CC2c3ccccc3C(=O)N2Cc2ccc3[nH]c(=O)oc3c2)cc1 (centres unmarked) [Compound 148, 4-((3-oxo-2-((2-oxo-2,3-dihydrobenzo[d]oxazol-6-yl)methyl)isoindolin-1-yl)methyl) benzonitrile] | > 1.5 | – |
| ≥ 5000 | B (3≥B>2) | 500 to 5000 | – | – | CC(c1ccc(O)cc1)N1Cc2ccccc2C1=O (centres unmarked) [Compound 45, 2-(1-(4-hydroxyphenyl)ethyl) isoindolin-1-one] | 1.2 to 1.5 | – |
| – | A (A>3) | – | < 500 | < 500 | Cn1ncc(Cl)c1CC1c2cc(Cl)cc(F)c2C(=O)N1CC1CC2(CNC(=O)O2)C1 (centres unmarked) [Compound 510, 2-((6-chloro-1-((4-chloro-1-methyl-1H-pyrazol-5-yl)methyl)-4-fluoro-3-oxoisoindolin-2-yl)methyl)-5-oxa-7-azaspiro[3.4]octan-6-one] | – | > 1.5 |
| 500 to 5000 | B (3≥B>2) | 500 to 5000 | – | – | N#Cc1ccccc1CC1c2ccccc2C(=O)N1Cc1ccc2[nH]nnc2c1 (centres unmarked) [Compound 189, 2-((2-((1H-benzo[d][1,2,3]triazol-5-yl)methyl)-3-oxoisoindolin-1-yl)methyl)benzonitrile] | > 1.5 | – |
| – | B (3≥B>2) | – | 500 to 5000 | < 500 | O=C1NCC2(CC(CN3C(=O)c4ccccc4C3Cc3c(Cl)nc4ccccn34)C2)O1 (centres unmarked) [Compound 488, 2-((1-((2-chloroimidazo[1,2-a]pyridin-3-yl)methyl)-3-oxoisoindolin-2-yl)methyl)-5-oxa-7-azaspiro[3.4]octan-6-one] | – | > 1.5 |
| – | B (3≥B>2) | – | < 500 | < 500 | Cn1ncc(Cl)c1CC1c2ccccc2C(=S)N1CC1CC2(CNC(=O)O2)C1 (centres unmarked) [Compound 482, 2-((1-((4-chloro-1-methyl-1H-pyrazol-5-yl)methyl)-3-thioxoisoindolin-2-yl)methyl)-5-oxa-7-azaspiro[3.4]octan-6-one] | – | > 1.5 |
| – | A (A>3) | – | 500 to 5000 | 500 to 5000 | Cn1ncc(Cl)c1CC1c2cc(Cl)cc(F)c2C2(CC2)N1CC1CC2(CNC(=O)O2)C1 (centres unmarked) [Compound 580, 2-((5′-chloro-3′-((4-chloro-1-methyl-1H-pyrazol-5-yl)methyl)-7′-fluorospiro[cyclopropane-1,1′-isoindolin]-2′-yl)methyl)-5-oxa-7-azaspiro[3.4]octan-6-one] | – | 1.2 to 1.5 |
| < 500 | B (3≥B>2) | < 500 | – | – | Cn1ncc(Cl)c1CC1c2ccccc2C(=O)N1Cc1ccc2[nH]nnc2c1 (centres unmarked) [Compound 279, 2-((1H-benzo[d][1,2,3]triazol-5-yl)methyl)-3-((4-chloro-1-methyl-1H-pyrazol-5-yl)methyl) isoindolin-1-one] | > 1.5 | – |
| < 500 | B (3≥B>2) | < 500 | – | – | O=C1c2ccccc2C(Cc2ncccc2Br)N1C/C(F)=C/c1c[nH]nn1 (centres unmarked) [Compound 314, (Z)-3-((3-bromopyridin-2-yl)methyl)-2-(2-fluoro-3-(1H-1,2,3-triazol-4-yl)allyl)isoindolin-1-one] | > 1.5 | – |
| – | C (2≥C) | – | ≥ 5000 | 5000 to 50000 | Cn1ncc(Cl)c1CC1c2ccccc2C(=O)N1C[C@@H]1C[C@@H]1c1c[nH]nn1 (relative stereo) [Compound 604, cis 2-((2-(1H-1,2,3-triazol-4-yl)cyclopropyl)methyl)-3-((4-chloro-1-methyl-1H-pyrazol-5-yl)methyl)isoindolin-1-one] | – | ≤ 1.2 |
| – | C (2≥C) | – | 500 to 5000 | 500 to 5000 | CC1NC(=O)OC12CC(CN1C(=O)c3ccccc3C1Cc1ncccc1Br)C2 (centres unmarked) [Compound 395, 2-((1-((3-bromopyridin-2-yl)methyl)-3-oxoisoindolin-2-yl)methyl)-8-methyl-5-oxa-7-azaspiro[3.4]octan-6-one] | – | > 1.5 |
| – | C (2≥C) | – | ≥ 5000 | 5000 to 50000 | Cn1ncc(Cl)c1CC1c2ccccc2C(=O)N1Cc1ccc2nonc2c1 (centres unmarked) [Compound 600, 2-(benzo[c][1,2,5]oxadiazol-5-ylmethyl)-3-((4-chloro-1-methyl-IH-pyrazol-5-yl)methyl)isoindolin-1-one] | – | ≤ 1.2 |
| – | A (A>3) | – | < 500 | < 500 | Cn1ncc(Cl)c1CC1c2cccc(Cl)c2C(=O)N1Cc1ccc2[nH]nnc2c1 (centres unmarked) [Compound 336, 2-((1H-benzo[d][1,2,3]triazol-5-yl)methyl)-7-chloro-3-((4-chloro-1-methyl-1H-pyrazol-5-yl)methyl)isoindolin-1-one] | – | > 1.5 |
| ≥ 5000 | B (3≥B>2) | 500 to 5000 | – | – | Cc1ccc2c(c1)CN(Cc1ccc3[nH]c(=O)oc3c1)C2=O [Compound 48, 6-((5-methyl-1-oxoisoindolin-2-yl)methyl)benzo[d]oxazol-2(3H)-one] | > 1.5 | – |
| – | A (A>3) | – | < 500 | < 500 | Cn1ncc(Cl)c1CC1c2cccc(F)c2C(=O)N1Cc1ccc2[nH]nnc2c1 (centres unmarked) [Compound 342, 2-((1H-benzo[d][1,2,3]triazol-5-yl)methyl)-3-((4-chloro-1-methyl-1H-pyrazol-5-yl)methyl)-7-fluoroisoindolin-1-one] | – | > 1.5 |
| 500 to 5000 | A (A>3) | 500 to 5000 | – | – | O=C1c2ccc(Br)cc2CN1Cc1ccc(O)cc1 [Compound 20, 5-bromo-2-(4-hydroxybenzyl) isoindolin-1-one] | > 1.5 | – |
| < 500 | B (3≥B>2) | < 500 | – | – | Cn1ncc(Cl)c1CC1c2cccc(F)c2C(=O)N1CC1CC2(CNC(=O)O2)C1 (centres unmarked) [Compound 309, 2-((1-((4-chloro-1-methyl-1H-pyrazol-5-yl)methyl)-4-fluoro-3-oxoisoindolin-2-yl)methyl)-5-oxa-7-azaspiro[3.4]octan-6-one] | > 1.5 | – |
| – | B (3≥B>2) | – | < 500 | < 500 | O=C1c2ccccc2C(Cc2ncccc2Br)N1CC#Cc1cn[nH]n1 (centres unmarked) [Compound 417, 2-(3-(2H-1,2,3-triazol-4-yl)prop-2-yn-1-yl)-3-((3-bromopyridin-2-yl)methyl) isoindolin-1-one] | – | > 1.5 |
| – | B (3≥B>2) | – | 500 to 5000 | < 500 | Cn1ncc(Cl)c1CC1c2ccccc2C(=O)N1CC1CC(C(N)=O)C1 (centres unmarked) [Compound 562, 3-((1-((4-chloro-1-methyl-1H-pyrazol-5-yl)methyl)-3-oxoisoindolin-2-yl)methyl)cyclobutane-1-carboxamide] | – | 1.2 to 1.5 |
| < 500 | C (2≥C) | < 500 | – | – | CC1c2ccccc2C(=O)N1Cc1ccc(NC(=O)NCc2cn[nH]c2)cc1 (centres unmarked) [Compound 292, 1-((1H-pyrazol-4-yl)methyl)-3-(4-((1-methyl-3-oxoisoindolin-2-yl)methyl)phenyl)urea] | ≤ 1.2 | – |
| ≥ 5000 | A (A>3) | 500 to 5000 | – | – | O=C1c2ccc(Br)cc2C(=O)N1Cc1ccc(O)cc1 [Compound 16, 5-bromo-2-(4-hydroxybenzyl)isoindoline-1,3-dione] | ≤ 1.2 | – |
| – | A (A>3) | – | 500 to 5000 | 500 to 5000 | COc1ccc(CN2C(=O)c3c(F)cc(Cl)cc3C2Cc2c(Cl)cnn2C)cc1 (centres unmarked) [Compound 581, 5-chloro-3-((4-chloro-1-methyl-1H-pyrazol-5-yl)methyl)-7-fluoro-2-(4-methoxybenzyl)isoindolin-1-one] | – | 1.2 to 1.5 |
| – | B (3≥B>2) | – | < 500 | 500 to 5000 | O=C1c2ccccc2C(Cc2n[nH]cc2Cl)N1Cc1ccc2[nH]nnc2c1 (centres unmarked) [Compound 388, 2-((1H-benzo[d][1,2,3]triazol-5-yl)methyl)-3-((4-chloro-1H-pyrazol-3-yl)methyl)isoindolin-1-one] | – | > 1.5 |
| – | B (3≥B>2) | – | 500 to 5000 | 500 to 5000 | COc1ccc(CN2C(=O)c3c(F)cc(Cl)cc3C2Cc2c(C)ccnc2C#N)cn1 (centres unmarked) [Compound 596, 3-((6-chloro-4-fluoro-2-((6-methoxypyridin-3-yl)methyl)-3-oxoisoindolin-1-yl)methyl)-4-methylpicolinonitrile] | – | > 1.5 |
| ≥ 5000 | B (3≥B>2) | 500 to 5000 | – | – | CC1(C)c2ccccc2C(=O)N1Cc1ccc2[nH]c(=O)oc2c1 [Compound 52, 6-((1,1-dimethyl-3-oxoisoindolin-2-yl)methyl) benzo[d]oxazol-2(3H)-one] | > 1.5 | – |

Source: patent US20260078130A1, “NAMPT MODULATORS, PREPARATIONS, AND USES THEREOF” (SIRONAX LTD., priority 2022, published 2026)
